This is an account of results in US7265227B2, “Piperidine derivatives useful as modulators of chemokine receptor activity” (AstraZeneca AB, priority 2001, dated 2007).

The structures appear in SMILES notation.

The test system of data set [1] is eotaxin mediated human eosinophil chemotaxis. Description: Human eosinophil chemotaxis. It is filed as cell-based. The note with it: human eosinophils from peripheral blood; eotaxin 0.1 to 100 nM; 1 hr at 37° C. As for the experimental part:
Human Eosinophil Chemotaxis
Human eosinophils were isolated from EDTA anticoagulated peripheral blood as previously described (Hansel et al., J. Immunol. Methods, 1991, 145, 105-110). The cells were resuspended at 10×10^6 ml^−1 in RPMI containing 200 IU/ml penicillin, 200 μg/ml streptomycin sulfate and supplemented with 10% HIFCS, at room temperature.
Eosinophils (700 μl) were pre-incubated for 15 mins at 37° C. with 7 μl of either vehicle or compound (100× required final concentration in 10% DMSO). The chemotaxis plate (ChemoTx, 3μ, pore, Neuroprobe) was loaded by adding 28 μl of a concentration of eotaxin (0.1 to 100 nM) containing a concentration of a compound according to the Examples or solvent to the lower wells of the chemotaxis plate. The filter was then placed over the wells and 25 μl of eosinophil suspension were added to the top of the filter. The plate was incubated for 1 hr at 37° C. in a humidified incubator with a 95% air/5% CO2 atmosphere to allow chemotaxis.
The medium, containing cells that had not migrated, was carefully aspirated from above the filter and discarded. The filter was washed once with phosphate buffered saline (PBS) containing 5 mM EDTA to remove any adherent cells. […] The number of eosinophils migrating was quantified according to the method of Strath et al., J. Immunol. […]

Data set [2] concerns the target T1, H1 (Cavia porcellus, UniProt P31389).
T1 construct: the trachea was cut into six ring segments each three cartilage bands wide and then suspended in 20 ml organ baths; from tissue; host or cells: guinea-pig isolated trachea (Dunkin-Hartley)
As to the kind of experiment: Guinea-pig isolated trachea (histamine concentration effect curves). The settings on record: guinea-pig tracheal rings; histamine E/[A] curve after 60 minutes incubation with test compound. As for the experimental part: Guinea-pig Isolated Trachea
(See for example, Harrison, R. W. S., Carswell, H. & Young, J. M. (1984) European J. Pharmacol., 106, 405-409.)
Male albino Dunkin-Hartley guinea-pigs (250 g) were killed by cervical dislocation and the whole trachea removed. After clearing the adherent connective tissue, the trachea was cut into six ring segments each three cartilage bands wide and then suspended in 20 ml organ baths containing Krebs-Henseleit solution of the following composition (MM): NaCl 117.6, NaH2PO4 0.9, NaHCO3 25.0, MgSO4 1.2, KCl 5.4, CaCl2 2.6 and glucose 11.1. The buffer was maintained at 37° C. and gassed with 5% CO2 in oxygen. Indomethacin (2.8 μM) was added to the Krebs solution to prevent development of smooth muscle tone due to the synthesis of cyclo-oxygenase products. […] Changes in isometric force were recorded on 2-channel Sekonic flat bed chart recorders. […]
Contraction responses were recorded as a percentage of the first curve maximum. […]
Experimental E/[A] curve data were analysed for the purposes of estimating the potencies (p[A50] values) of histamine in the absence and presence of the test compound. Affinity (pA2) values of test compounds were subsequently calculated using the following equation: log(r−1)=log[B]+pA2 where r=[A]50 in presence of test compound/[A]50 in absence of antagonist and [B] is the concentration of test compound.

T1 sequence (P31389 whole entry): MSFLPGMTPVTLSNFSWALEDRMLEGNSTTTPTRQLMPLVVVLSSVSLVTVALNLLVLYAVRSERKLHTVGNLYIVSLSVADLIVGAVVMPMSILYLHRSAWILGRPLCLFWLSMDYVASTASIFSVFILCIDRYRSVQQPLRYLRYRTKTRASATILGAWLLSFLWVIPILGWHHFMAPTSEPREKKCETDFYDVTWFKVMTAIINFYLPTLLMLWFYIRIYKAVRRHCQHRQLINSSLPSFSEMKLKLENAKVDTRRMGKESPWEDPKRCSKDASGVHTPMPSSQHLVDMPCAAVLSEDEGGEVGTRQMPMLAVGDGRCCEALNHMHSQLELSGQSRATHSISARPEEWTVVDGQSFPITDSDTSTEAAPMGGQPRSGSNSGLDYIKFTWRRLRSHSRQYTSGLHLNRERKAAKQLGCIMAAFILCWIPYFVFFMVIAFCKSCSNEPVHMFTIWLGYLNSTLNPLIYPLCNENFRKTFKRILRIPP

In turn, `Cc1ccc(S(=O)(=O)NC(=O)NCCN2CCC(Oc3ccc(Cl)c(Cl)c3)CC2)cc1` [Example 1, N-[[[2-[4-(3,4-dichlorophenoxy)-1-piperidinyl]ethyl]amino]carbonyl]-4-methyl-benzenesulfonamide] registered a melting point of 179.6 to 180.3 °C. Moreover, the “antagonism of the eotaxin mediated human eosinophil chemotaxis” value in data set [1] is “antagonist”. For the same compound, the H1 antagonism result in data set [2] was “H1 antagonist”.
Compound `O=C(NS(=O)(=O)NCCCN1CCC(Oc2ccc(Cl)c(Cl)c2)CC1)c1ccccc1` [Example 18, N-benzoyl-N′-[3-[4-(3,4-dichlorophenoxy)-1-piperidinyl]propyl]-sulfamide] yielded a melting point of 93 to 106 °C.
For `O=C(NS(=O)(=O)CCN1CCC(Oc2ccc(Cl)c(Cl)c2)CC1)c1ccccc1Cl` [Example 19, N-(2-Chlorobenzoyl)-4-(3,4-dichlorophenoxy)-1-piperidineethanesulfonamide], the melting point lay within 237 to 239 °C.
On the same count and under the same terms, with `Cc1ccc(S(=O)(=O)NC(=O)CCN2CCC(Oc3ccc(Cl)c(Cl)c3)CC2)cc1` [Example 20, N-[3-[4-(3,4-dichlorophenoxy)-1-piperidinyl]-1-oxopropyl]4-methyl-benzenesulfonamide] the figure was 177 to 179 °C.

The term melting point denotes the temperature of the solid-liquid transition.
